Where “and” joins values, the source holds several entries; their conditions need not be identical. Equal values may be shown once.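 Tested at 5 concentrations; 48 h exposure; 96-well plates; endpoints linearly interpolated, else capped at highest concentration. At the GI50, growth is halved. TGI: concentration producing complete growth inhibition.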

One assay deals with EKVX NSCLC. Description: NCI anticancer screen, dose series, 48 h.
`COc1ccccc1C1C(C(=O)Nc2ccccc2)=C(C)NC(C)=C1C(=O)Nc1ccccc1`: the TGI was greater than 100 µM. Still for that read-out and setting: the same measure for `OCc1ccc2[n+](c1)CCC1c3ccccc3NC21` (stereo unspecified): greater than 300 µM. Still for that read-out and setting: under `CCCCCCCCCCCC(=O)CC(=O)c1c(O)cccc1O` stands 33.4 µM; under `CN(C(=O)C12C3C4C1C1C2C3C41C(=O)C(C)(C)C)C(C)(C)C` (stereo unspecified), greater than 100 µM; under `Cc1cc2c(cc1C)[n+](=O)c(C(=O)CC(=O)C(=O)Nc1c(C(C)C)cccc1C(C)C)c(C)n2[O-]`, greater than 100 µM. The same measure, in the same setting: the same measure for `COc1ccc2cc1Oc1ccc(cc1)CC1c3cc(c(OC)cc3CCN1C)Oc1c3c(cc4c1C(C2)N(C)CC4)OCO3` (stereo unspecified): 29.8 µM. Take `Cc1ccc(-c2c3c([nH]c(=O)c2C#N)-c2cc(F)ccc2OC3)cc1`: the GI50 was 95.5 µM and the TGI is greater than 100 µM.

Molecule `COc1ccc(OC)c(NC(=O)C(=O)C(C(C)=O)c2nc3ccc(Cl)cc3[nH]c2=O)c1` (stereo unspecified) yielded a TGI greater than 50 µM. With `N#CC(C(=N/O)/C(=N/O)C(C#N)c1ccc(Cl)cc1)c1ccc(Cl)cc1` (stereo unspecified), the TGI was greater than 100 µM.

Another assay deals with U251 CNS. Description: NCI anticancer screen, dose series, 48 h.
On to `CC1(Cl)C(=O)NC(=O)N(C2CC(N=[N+]=[N-])C(CO)O2)C1N=[N+]=[N-]` (stereo unspecified), for which the TGI is greater than 100 µM. `COc1ccc2ccc3c(c2c1)CN1CCc2cc(OC)c(OC)cc2C1C3` (stereo unspecified) yielded a TGI greater than 100 µM. `OCCC1(O)CCC(O)CC1` (stereo unspecified): the TGI is greater than 100 µM.

Molecule `CCCCNC1=C(C(=O)OCC)C(=O)CO1` gave a TGI greater than 100 µM. Take `CC(C)CC(=O)[O-].CC(C)CC(=O)[O-].N.N.N.N.[Co+3].[O-][Cl+3]([O-])([O-])[O-]`: the GI50 was greater than 100 µM and the TGI was greater than 100 µM. `COc1cc(C2c3cc4c(cc3C(NCC(O)CO)C3COC(=O)[C@H]23)OCO4)cc(OC)c1OC` (stereo partly specified) registered a TGI of 0.766 µM. On the same count and under the same terms, the same measure for `COC(=O)CC(=O)C[P+](c1ccccc1)(c1ccccc1)c1ccccc1`: greater than 218 µM; for `CCCCN(CCCC)C(=O)C(=O)C(C#N)c1ccc(C)cc1` (stereo unspecified): greater than 100 µM. Still for that read-out and setting: the same measure for `Cc1ccc(S(=O)(=O)C(CC(=O)N2CCCC2)C(=O)c2ccccc2)cc1` (stereo unspecified): greater than 100 µM. On the same count and under the same terms, under `CC1(C)CC(/C=C2/OC(=O)c3ccccc32)=C(C#N)C(=O)O1` stands greater than 100 µM. `Cc1nc2c(nc1Cl)nc(Oc1ccc(Cl)cc1)c1ccccc12` yielded a TGI of 40.6 µM. Still for that read-out and setting: under `CC(=O)Nc1ccccc1Sc1ccccc1` stands greater than 100 µM; under `COC(=O)C[C@H]1CCC2(OCCO2)[C@]1(C)C(=O)OC`, greater than 100 µM; under `CCCCCCCCCC[C@@H](O)[C@@H]1CC[C@H]([C@H]2CC[C@@H]([C@@H](O)CCCCCCCCCC[C@H]3CC(CC(C)=O)C(=O)O3)O2)O1` (stereo partly specified), 43.8 µM.

On to `C=C(CN1CCc2ccccc2C1)c1ccc(C(=O)Nc2cnccn2)cc1`, for which the GI50 is 16.2 µM and the TGI was greater than 100 µM. As for `CCOc1ccc2c(c1)[n+]([O-])c(S(=O)(=O)c1ccc(C)cc1)c(N)[n+]2[O-]`, the TGI was greater than 100 µM. Still for that read-out and setting: the same measure for `CC12CC[C@@H](C(C)(C)O)C1[C@@H](O)CC1(C)C2CCC2[C@@]3(C)CC[C@H](O)C(C)(C)C3C(O)C[C@]21C` (stereo partly specified): 40 µM.

For the molecule `O=C(CI)NC1Oc2ccccc2-c2oc(=O)c(-c3ccccc3)cc21` (stereo unspecified), the GI50 is 1.73 µM and the TGI stood at 3.22 µM. The molecule `Cc1ccc(C)c(NC(=O)CC/C(=N\NC(=O)C(=O)NN)C(C)C(=O)c2ccc(O)cc2)c1` (stereo unspecified) gave a TGI greater than 100 µM.

Regarding `N=C1CSC2=NC3=C(CCC/C3=C\c3ccccc3)C(c3ccccc3)N12` (stereo unspecified), the TGI was determined as 13.6 µM.

For `COc1ccc(CNc2cc(OC)c(OC)c(OC)c2)cc1`, the TGI was 24.3 µM. As for `CCOC(=O)/C=C(/C(=O)OCC)n1cc(Cl)c(=O)n(CC(=O)OCC)c1=O`, the GI50 is 21 µM; the TGI is 13.6 µM and 38.9 µM. For the molecule `COc1ccccc1C1C(C(=O)Nc2ccccc2)=C(C)NC(C)=C1C(=O)Nc1ccccc1`, the TGI was greater than 100 µM. Still for that read-out and setting: under `OCc1ccc2[n+](c1)CCC1c3ccccc3NC21` (stereo unspecified) stands greater than 300 µM; under `CCCCCCCCCCCC(=O)CC(=O)c1c(O)cccc1O`, 31.5 µM.

On to `CN(C(=O)C12C3C4C1C1C2C3C41C(=O)C(C)(C)C)C(C)(C)C` (stereo unspecified), for which the TGI was greater than 100 µM. On the same count and under the same terms, under `Cc1cc2c(cc1C)[n+](=O)c(C(=O)CC(=O)C(=O)Nc1c(C(C)C)cccc1C(C)C)c(C)n2[O-]` stands greater than 100 µM; under `COc1ccc2cc1Oc1ccc(cc1)CC1c3cc(c(OC)cc3CCN1C)Oc1c3c(cc4c1C(C2)N(C)CC4)OCO3` (stereo unspecified), 17.3 µM.

Take `Cc1ccc(-c2c3c([nH]c(=O)c2C#N)-c2cc(F)ccc2OC3)cc1`: the GI50 was 46.2 µM and the TGI was greater than 100 µM.

`COc1ccc(OC)c(NC(=O)C(=O)C(C(C)=O)c2nc3ccc(Cl)cc3[nH]c2=O)c1` (stereo unspecified) displayed a TGI greater than 50 µM. Still for that read-out and setting: under `N#CC(C(=N/O)/C(=N/O)C(C#N)c1ccc(Cl)cc1)c1ccc(Cl)cc1` (stereo unspecified) stands greater than 100 µM.

The subject of the next assay is NCI/ADR-RES ovarian. The experiment in a line: NCI anticancer screen, dose series, 48 h.
In the case of `C=C(CN1CCc2ccccc2C1)c1ccc(C(=O)Nc2cnccn2)cc1`, the GI50 was 4.95 µM and the TGI was greater than 100 µM. As for `CCOC(=O)/C=C(/C(=O)OCC)n1cc(Cl)c(=O)n(CC(=O)OCC)c1=O`, the TGI was 25 µM and 97.7 µM. With `Cc1ccc(-c2c3c([nH]c(=O)c2C#N)-c2cc(F)ccc2OC3)cc1`, the GI50 was greater than 100 µM and the TGI is greater than 100 µM.

Another assay has as its system MDA-MB-435. Description: NCI anticancer screen, dose series, 48 h.
On to `O=C(CI)NC1Oc2ccccc2-c2oc(=O)c(-c3ccccc3)cc21` (stereo unspecified), for which the GI50 is 1.68 µM and the TGI came to 3.16 µM. As to `CCOC(=O)/C=C(/C(=O)OCC)n1cc(Cl)c(=O)n(CC(=O)OCC)c1=O`, the TGI was 9.95 µM and 36.6 µM.

Regarding `Cc1ccc(-c2c3c([nH]c(=O)c2C#N)-c2cc(F)ccc2OC3)cc1`, the GI50 is 35.8 µM and the TGI was greater than 100 µM.

For a further assay, the system named is RXF 393 renal. The experiment in a line: NCI anticancer screen, dose series, 48 h.
`CC1(Cl)C(=O)NC(=O)N(C2CC(N=[N+]=[N-])C(CO)O2)C1N=[N+]=[N-]` (stereo unspecified) yielded a TGI greater than 100 µM. On the same count and under the same terms, under `CCCCNC1=C(C(=O)OCC)C(=O)CO1` stands greater than 100 µM; under `COC(=O)CC(=O)C[P+](c1ccccc1)(c1ccccc1)c1ccccc1`, greater than 218 µM; under `CCCCN(CCCC)C(=O)C(=O)C(C#N)c1ccc(C)cc1` (stereo unspecified), greater than 100 µM. The molecule `Cc1ccc(S(=O)(=O)C(CC(=O)N2CCCC2)C(=O)c2ccccc2)cc1` (stereo unspecified) displayed a TGI greater than 100 µM.

Values taken from PubChem BioAssay (NCI).
